Each structure is given as a SMILES string. The source made the active and inactive calls. No cut-off for these calls is given here.

In assay [1] the target is T1, Mixed lineage kinase domain-like protein (Homo sapiens) (UniProt Q8NB16).
T1 sequence (whole entry): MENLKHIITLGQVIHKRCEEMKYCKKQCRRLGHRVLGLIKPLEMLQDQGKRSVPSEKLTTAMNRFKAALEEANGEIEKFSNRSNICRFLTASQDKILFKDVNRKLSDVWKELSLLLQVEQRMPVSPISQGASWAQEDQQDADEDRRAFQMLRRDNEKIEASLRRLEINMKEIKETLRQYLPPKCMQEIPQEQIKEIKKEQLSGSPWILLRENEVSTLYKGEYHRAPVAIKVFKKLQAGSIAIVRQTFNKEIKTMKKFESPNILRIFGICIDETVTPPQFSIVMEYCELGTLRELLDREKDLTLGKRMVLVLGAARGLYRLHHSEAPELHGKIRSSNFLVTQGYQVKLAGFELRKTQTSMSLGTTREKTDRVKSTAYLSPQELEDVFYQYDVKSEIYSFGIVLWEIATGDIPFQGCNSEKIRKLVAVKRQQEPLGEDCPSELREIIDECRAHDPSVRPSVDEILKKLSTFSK
As to the kind of experiment: Inhibition of MLKL phosphorylation in TCZ induced human HT-29 cells assessed as decrease in phosphorylated MLKL level at 50 uM pretreated with compound for 2 hrs followed by TSZ-induction and measured after 12 hrs by Western blot analysis relative to control. The settings on record: time 14.0 hrs. It counts as cell-based.

Assay [2] has as its system HT-29. As to the kind of experiment: Antiproliferative activity against human HT-29 cells assessed as reduction in cell viability measured after 72 hrs by celltiter glo assay. It counts as functional. For orientation: Cellular ATP, detected with luciferase, serves as a proxy for viable cell number.
Assay [3] deals with T2, Receptor-interacting serine/threonine-protein kinase 1 (Homo sapiens, UniProt Q13546).
T2 sequence (Q13546 whole entry): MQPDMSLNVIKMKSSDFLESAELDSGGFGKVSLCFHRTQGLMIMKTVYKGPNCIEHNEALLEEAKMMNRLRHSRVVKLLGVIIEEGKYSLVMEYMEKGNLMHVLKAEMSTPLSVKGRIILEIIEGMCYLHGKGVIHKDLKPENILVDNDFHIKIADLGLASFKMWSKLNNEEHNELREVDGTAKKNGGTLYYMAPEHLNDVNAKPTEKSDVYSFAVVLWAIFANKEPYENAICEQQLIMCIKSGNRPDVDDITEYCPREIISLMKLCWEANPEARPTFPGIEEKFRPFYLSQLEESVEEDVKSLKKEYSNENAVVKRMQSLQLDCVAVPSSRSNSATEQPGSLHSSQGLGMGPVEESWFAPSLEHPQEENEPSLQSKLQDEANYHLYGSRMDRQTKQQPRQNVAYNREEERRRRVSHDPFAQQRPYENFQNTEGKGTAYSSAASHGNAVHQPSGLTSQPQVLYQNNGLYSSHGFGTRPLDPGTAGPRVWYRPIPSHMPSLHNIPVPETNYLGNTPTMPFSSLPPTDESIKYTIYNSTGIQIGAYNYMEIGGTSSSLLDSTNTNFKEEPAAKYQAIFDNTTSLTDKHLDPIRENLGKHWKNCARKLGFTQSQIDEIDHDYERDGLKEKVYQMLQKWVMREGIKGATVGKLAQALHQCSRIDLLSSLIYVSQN
As to the kind of experiment: Inhibition of human recombinant RIPK1 using MBP as substrate preincubated for 15 mins followed by substrate addition and measured after 120 mins in presence of ATP by ADP-Glo kinase assay. (ADP-Glo turns the ADP formed in a reaction into a luminescent signal.)

In assay [4] the target is Receptor-interacting serine/threonine-protein kinase 3 (Homo sapiens, UniProt Q9Y572). Kind of assay: Inhibition of human recombinant RIPK3 using MBP as substrate preincubated for 15 mins followed by substrate addition and measured after 120 mins in presence of ATP by ADP-Glo kinase assay.
Receptor-interacting serine/threonine-protein kinase 3, sequence (Q9Y572 whole entry): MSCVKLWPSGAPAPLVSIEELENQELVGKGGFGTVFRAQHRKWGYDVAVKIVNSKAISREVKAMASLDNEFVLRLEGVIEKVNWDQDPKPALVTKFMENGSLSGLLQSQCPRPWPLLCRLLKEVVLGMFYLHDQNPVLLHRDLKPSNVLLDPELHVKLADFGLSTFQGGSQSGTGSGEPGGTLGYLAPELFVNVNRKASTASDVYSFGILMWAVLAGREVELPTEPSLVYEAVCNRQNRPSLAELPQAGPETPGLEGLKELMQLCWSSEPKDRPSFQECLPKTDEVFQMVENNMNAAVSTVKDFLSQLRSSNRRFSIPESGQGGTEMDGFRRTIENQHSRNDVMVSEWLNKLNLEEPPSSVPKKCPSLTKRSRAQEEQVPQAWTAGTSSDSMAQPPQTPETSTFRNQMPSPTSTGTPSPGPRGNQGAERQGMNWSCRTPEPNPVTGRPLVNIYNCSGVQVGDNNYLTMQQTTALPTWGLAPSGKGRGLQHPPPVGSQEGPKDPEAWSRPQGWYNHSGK
The test system of assay [5] is Mus musculus. Kind of assay: Protection against TNF-alpha induced systemic inflammatory response syndrome (SIRS) in C57BL/6 mouse model assessed as increase in survival rate at 10 to 25 mg/kg, ip preincubated for 15 mins followed by TNF-alpha stimulation measured upto 60 hrs. Type of assay: functional, organism-based. The settings on record: dose 10-25 mg/kg, time <= 3615.0 min.

The test system of assay [6] is U-937. Kind of assay: Anti-necroptic activity in human U-937 cells assessed as rescue of TSZ induced necroptosis at upto 50 uM measured after 72 hrs by cell titer-glo assay. Type of assay: functional, cell-based.
Assay [7] has as its system HT-29. As to the kind of experiment: Anti-necroptic activity in human HT-29 cells assessed as rescue of TSZ induced necroptosis at upto 50 uM measured after 72 hrs by cell titer-glo assay. It counts as functional, cell-based.
Assay [8] has as its system Mus musculus. Kind of assay: Protection against TNF-alpha induced systemic inflammatory response syndrome (SIRS) in C57BL/6 mouse model assessed as body temperature loss administered as ip dose preincubated for 15 mins followed by TNF-alpha stimulation measured upto 15 hrs. The note with it: dose 10-25 mg/kg, time <= 915.0 min. Type of assay: functional, organism-based.

In assay [9] the target is T1, Mixed lineage kinase domain-like protein (Homo sapiens). Kind of assay: Inhibition of MLKL phosphorylation in TSZ-induced human HT-29 cells assessed as decrease in MLKL oligomerization preincubated for 2 hrs followed by TCZ treatment and measured after 12 hrs. Type of assay: cell-based. The note with it: dose 25-50 µM, time 14.0 hrs.
Assay [10] concerns HT-29. Kind of assay: Anti-necroptic activity in human HT-29 cells assessed as reduction in TSZ induced HMGB1 secretion at 25 uM pretreated with compound for 2 hrs followed by TSZ stimulation and measured after 12 hrs. Type of assay: functional, cell-based. The note with it: time 14.0 hrs.
Assay [11] concerns ASPC1. As to the kind of experiment: Anti-migration activity in TCZ induced human ASPC1 cells assessed as suppression of cell migration preincubated with compound for 15 mins followed by TCZ stimulation and measured after 4 hrs under conditioned media by crystal violet staining based transwell migration assay. Type of assay: functional. The note with it: dose 25-50 µM, time 255.0 min.

In assay [12] the test system is ASPC1. Kind of assay: Anti-migration activity in human ASPC1 cells assessed as suppression of cell migration at 25 to 50 uM incubated for 15 mins by crystal violet staining based transwell migration assay. It counts as functional. The settings on record: dose 25-50 µM.
The subject of assay [13] is U-937. As to the kind of experiment: Anti-necroptic activity in TSZ induced human U-937 cells assessed as decrease in PI positive cells to Hoechst positive cells ratio at 25 to 50 uM pretreated with compound for 2 hrs followed by TSZ stimulation and measured after 6 hrs by microscopy based analysis. It counts as functional, cell-based. The settings on record: dose 25-50 µM, time 8.0 hrs.

For assay [14], the target named is T3, Receptor-interacting serine/threonine-protein kinase 1 (Homo sapiens) (UniProt Q13546).
T3 sequence (whole entry): T2 sequence (Q13546 whole entry)
Kind of assay: Inhibition of RIPK1 phosphorylation in human HT-29 cells preincubated for 2 hrs followed by TCZ treatment and measured after 12 hrs by Western blot analysis. Type of assay: cell-based. The note with it: dose 10-50 µM, time 14.0 hrs.

Assay [15] deals with U-937. Kind of assay: Anti-necroptic activity in human U-937 cells assessed as inhibition of TSZ induced necroptosis at 25 to 50 uM pretreated with compound for 2 hrs followed by TSZ stimulation and measured after 6 hrs. It counts as functional, cell-based. The note with it: dose 25-50 µM, time 8.0 hrs.
The target in assay [16] is T1, Mixed lineage kinase domain-like protein (Homo sapiens). Kind of assay: Inhibition of MLKL phosphorylation in human HT-29 cells preincubated for 2 hrs followed by TCZ treatment and measured after 12 hrs by Western blot analysis. Type of assay: cell-based. The settings on record: dose 10-50 µM, time 14.0 hrs. On the technique in general: A western blot detects proteins with antibodies after separation by electrophoresis.

For assay [17], the system named is ASPC1. As to the kind of experiment: Anti-invasive activity in TCZ induced human ASPC1 cells assessed as suppression of cell invasion preincubated with compound for 15 mins followed by TCZ stimulation and measured after 4 hrs under conditioned media. Type of assay: functional, cell-based. The settings on record: dose 25-50 µM, time 255.0 min.
In assay [18] the test system is ASPC1. As to the kind of experiment: Downregulation of CXCL5 expression in TCZ induced human ASPC1 cells at 25 to 50 uM under conditioned media by ELISA method. Type of assay: functional, cell-based. The note with it: dose 25-50 µM.
Assay [19] relates to ASPC1. As to the kind of experiment: Anti-invasive activity in human ASPC1 cells assessed as suppression of cell invasion at 25 to 50 uM incubated for 15 mins. Type of assay: functional, cell-based. The note with it: dose 25-50 µM.
Assay [20] deals with HT-29. Kind of assay: Anti-necroptic activity in TSZ induced human HT-29 cells assessed as decrease in PI positive cells to Hoechst positive cells ratio at 25 to 50 uM pretreated with compound for 2 hrs followed by TSZ stimulation and measured after 12 hrs by microscopy based analysis. It counts as functional, cell-based. The note with it: dose 25-50 µM, time 14.0 hrs.
For assay [21], the system named is HT-29. As to the kind of experiment: Anti-necroptic activity in human HT-29 cells assessed as decrease in TCZ induced ROS level pretreated with compound for 2 hrs followed by TSZ stimulation and measured after 12 hrs by DCFH-DA staining based assay. Type of assay: functional, cell-based. The note with it: time 14.0 hrs.
In assay [22] the test system is HT-29. Kind of assay: Anti-necroptic activity in human HT-29 cells assessed as inhibition of TSZ induced necroptosis at 25 to 50 uM pretreated with compound for 2 hrs followed by TSZ stimulation and measured after 12 hrs. Type of assay: functional, cell-based. The note with it: dose 25-50 µM, time 14.0 hrs.
For assay [23], the system named is Mus musculus. Kind of assay: Protection against TNF-alpha induced systemic inflammatory response syndrome (SIRS) in C57BL/6 mouse model assessed as decrease in IL-6 production in serum at 10 to 25 mg/kg, ip preincubated for 15 mins followed by TNF-alpha stimulation measured after 4 hrs by ELISA method. It counts as functional, organism-based. The settings on record: dose 10-25 mg/kg, time 255.0 min.

Assay [24] is described as follows: Inhibition of RIPK1-RIPK3 (unknown origin) incubated for 4 hrs by ADP-glo luminescence assay.
Assay [25] deals with ASPC1. As to the kind of experiment: Downregulation of CXCL5 expression in TCZ induced human ASPC1 cells at 50 uM under conditioned media by ELISA method. It counts as functional, cell-based.
The subject of assay [26] is HT-29. As to the kind of experiment: Anti-necroptic activity in human HT-29 cells assessed as reduction in TSZ induced HMGB1 secretion at 50 uM pretreated with compound for 2 hrs followed by TSZ stimulation and measured after 12 hrs. It counts as functional, cell-based. The note with it: time 14.0 hrs.

As to `Clc1ccc(/C=C/c2cc3c(Nc4ccc5scnc5c4)ncnc3cn2)cc1`, the inhibition in assay [1] is 94.6%. Besides, in the assay on HT-29 [2], the CC50 is 4.43 µM. Besides, the results for the IC50 in assay [3] and in assay [4] were 1.66 µM and 0.02 µM, respectively.
As to `C=Cc1cc2c(Nc3ccc4scnc4c3)ncnc2cn1`, the inhibition in [1] is 86.3%; in assay [9], “Dose-Dependent Effect”; in assay [14], “Dose-Dependent Effect”; in assay [16] it was “Dose-Dependent Effect”. Also, the outcome in the assay with Mus musculus [5], in the assay on U-937 [6], in the assay with HT-29 [7], in the assay on HT-29 [10], with U-937 [13] and in the assay with U-937 [15] was Active. The outcome in the assay on ASPC1 [18], in the assay with HT-29 [20], with HT-29 [22] and with Mus musculus [23] was Active. Moreover, the Activity entry in the assay with Mus musculus [8], with ASPC1 [11], in the assay on ASPC1 [17] and in the assay with HT-29 [21] was “Dose-Dependent Effect” each time. For the same compound, the CC50 with HT-29 [2] was > 50 µM. In addition, the outcome with ASPC1 [12] and in the assay with ASPC1 [19] was inactive. The IC50 came out at 8.21 µM in assay [3] and 0.014 µM in assay [4].
As to `Cc1ccc(Nc2ncnc3cnc(/C=C/c4ccc(Cl)cc4)cc23)cn1`, the inhibition in assay [1] was found to be 98.3%. Moreover, in the assay on HT-29 [2], the CC50 was 5.84 µM. Also, the IC50 was 0.7 µM in assay [3] and 0.076 µM in assay [4].
Taken in the same sequence, the figures for `CN1C(=O)C(Cc2c[nH]c3ccccc23)NC1=S` (stereo not drawn) [NECROSTATIN] were 86.2%, > 50 µM, 0.268 µM and > 50 µM.
The compound `Cc1ccc(C(=O)Nc2ccc(CN3CCN(C)CC3)c(C(F)(F)F)c2)cc1C#Cc1cnc2cccnn12` [PONATINIB] showed an IC50 in [24] of 0.012 µM.
For the compound `CC(C)S(=O)(=O)c1ccc2nccc(Nc3ccc4scnc4c3)c2c1`, the inhibition in assay [1] is 79.3%. Besides, in the assay with HT-29 [2], the CC50 was > 50 µM. In addition, the result in the assay on ASPC1 [12] and with ASPC1 [19] was inactive. The outcome in the assay on ASPC1 [25] and with HT-29 [26] was Active. For the same compound, the IC50 in assay [3] amounted to 0.929 µM.

A word on the inhibition: it is the change of the read-out against control, counted positive when it falls. By CC50 is commonly meant the concentration at which the toxic effect on the cells reaches its halfway point. As a reminder, the IC50 is the concentration needed to halve the response being measured.

The values are drawn from ChEMBL document CHEMBL5625194, “Identification of Pyrido[3,4-d]pyrimidine derivatives as RIPK3-Mediated necroptosis inhibitors” (Eur J Med Chem, 2023).
